Assay results reported in patent publication US7674807B2, “Heterocycle-substituted n-phenyl-phthalamide derivatives, related compounds and their use as insecticides” (Bayer CropScience AG, priority 2004, dated 2010).

Key:
[1] = tested on: larva of Spodoptera litura; assay: Test against larva of Spodoptera litura (leaf dip, sweet potato leaves); type: in vivo; details: 20 ppm concentration of the active component; third instar larvae; counted after 7 days; 25° C.
Protocol: Preparation of Test Solution:
In order to make an appropriate formulation of an active compound, 1 part by weight of the active compound was mixed with the above-mentioned amount of solvent containing the above-mentioned amount of emulsifier and the mixture was diluted with water to a prescribed concentration.
Leaves of sweet potato were soaked in the test solution diluted to a prescribed concentration with water, dried in the air and put in a dish of 9 cm diameter.
10 larvae of Spodoptera litura at the third instar were placed on the leaves and kept in a room at the constant temperature of 25° C. After 2 and 4 days further leaves of sweet potato were added and after 7 days the number of dead larvae was counted and the rate of death was calculated.
In this test the results of 2 dishes at 1 section were averaged.

[2] = tested on: larva of Cnaphalocrocis medinalis Guenee; assay: Test against larva of Cnaphalocrocis medinalis Guenee (sprayed paddy rice foliage); type: in vivo; details: 20 ppm concentration of the active component; second instar larvae; counted after 7 days; 25° C.
Protocol: Paddy rice (variety: Tamanishiki) planted in a pot was treated by spraying 50 ml per pot of the diluted aqueous solution of the prescribed concentration of the active compound prepared in the same manner as in the above-mentioned Biological Test Example 1. After the treated rice plant was dried in the air, their foliage part was cut in 4-5 cm length, which were put in a dish with 9 cm diameter with a sheet of filter paper and 2 ml of water. Five larvae of Cnaphalocrocis medinalis Guenee at the second instar were put in the dish that was placed in a room at the constant temperature of 25° C. After 2 and 4 days, each rest (each ⅓ amount) of foliage parts of rice plant were cut in the same manner and added to the dish. After 7 days the number of dead larvae was counted and the rate of death was calculated. In this test the results of 2 dishes at 1 section were averaged.

Row | SMILES | controlling effect, rate of death [1] | controlling effect, rate of death [2]
1 | Cc1cc(Cn2nc(C(F)(F)F)cc2C(F)(F)F)ccc1NC(=O)c1cccc(Cl)c1C(=O)NC(C)C[S+](C)[O-] (mixture of isomers) [compound 13] | 100% | 100%
2 | Cc1cc(Cn2nc(C(F)(F)F)cc2C(F)(F)F)ccc1NC(=O)c1cccc(Cl)c1C(=O)NC(C)C[S+](C)[O-] (mixture of isomers) [compound 14] | 100% | 100%
3 | Cc1cc(Cn2nc(C(F)(F)F)cc2C(F)(F)F)ccc1NC(=O)c1cccc(Br)c1C(=O)NC(C)C[S+](C)[O-] (mixture of isomers) [compound 51] | 100% | 100%
4 | Cc1cc(Cn2nc(C(F)(F)F)cc2C(F)(F)F)ccc1NC(=O)c1cccc(I)c1C(=O)NC(C)C[S+](C)[O-] (mixture of isomers) [compound 87] | 100% | 100%
5 | Cc1cc(Cn2nc(C(F)(F)F)cc2C(F)(F)F)ccc1NC(=O)c1cccc(I)c1C(=O)NC(C)C[S+](C)[O-] (mixture of isomers) [compound 88] | 100% | 100%
6 | Cc1cc(Cn2nc(C(F)(F)F)cc2C(F)(F)F)ccc1NC(=O)c1cccc(Cl)c1C(=O)NC(C)(C)C[S+](C)[O-] (racemic) [compound 9] | 100% | 100%
7 | CSCC(C)NC(=O)c1c(Cl)cccc1C(=O)Nc1ccc(Cn2nc(C(F)(F)F)cc2C(F)(F)F)cc1C (racemic) [compound 11] | 100% | 100%
8 | Cc1cc(Cn2nc(C(F)(F)F)cc2C(F)(F)F)ccc1NC(=O)c1cccc(Cl)c1C(=O)NC(C)CS(C)(=O)=O (racemic) [compound 15] | 100% | 100%
9 | CSCC(C)NC(=O)c1c(Br)cccc1C(=O)Nc1ccc(Cn2nc(C(F)(F)F)cc2C(F)(F)F)cc1C (racemic) [compound 48] | 100% | 100%
10 | Cc1cc(Cn2nc(C(F)(F)F)cc2C(F)(F)F)ccc1NC(=O)c1cccc(Br)c1C(=O)NC(C)CS(C)(=O)=O (racemic) [compound 52] | 100% | 100%
11 | CSCC(C)NC(=O)c1c(I)cccc1C(=O)Nc1ccc(Cn2nc(C(F)(F)F)cc2C(F)(F)F)cc1C (racemic) [compound 85] | 100% | 100%
12 | Cc1cc(Cn2nc(C(F)(F)F)cc2C(F)(F)F)ccc1NC(=O)c1cccc(I)c1C(=O)NC(C)CS(C)(=O)=O (racemic) [compound 89] | 100% | 100%
13 | CSCC(C)NC(=O)c1c(I)cccc1C(=O)Nc1ccc(Cn2nc(C(F)(F)F)cc2OC(F)F)cc1C (racemic) [compound 103] | 100% | 100%
14 | Cc1cc(Cn2nc(C(F)(F)F)cc2OC(F)F)ccc1NC(=O)c1cccc(I)c1C(=O)NC(C)CS(C)(=O)=O (racemic) [compound 107] | 100% | 100%
15 | CSCC(C)(C)NC(=O)c1c(Cl)cccc1C(=O)Nc1ccc(Cn2nc(C(F)(F)F)cc2C(F)(F)F)cc1C [compound 8] | 100% | 100%
16 | Cc1cc(Cn2nc(C(F)(F)F)cc2C(F)(F)F)ccc1NC(=O)c1cccc(Cl)c1C(=O)NC(C)(C)CS(C)(=O)=O [compound 10] | 100% | 100%
17 | CSCC(C)NC(=O)c1c(Cl)cccc1C(=O)Nc1ccc(Cn2nc(C(F)(F)F)cc2C(F)(F)F)cc1C (stereo not drawn) [compound 12] | 100% | 100%
18 | Cc1cc(Cn2nc(C(F)(F)F)cc2C(F)(F)F)ccc1NC(=O)c1cccc(Cl)c1C(=O)NC(C)CS(C)(=O)=O (stereo not drawn) [compound 16] | 100% | 100%
